Data: US5698529A, “Chemotherapeutic compositions” (Supratek Pharma, Inc., priority 1996, dated 1997)

Assays:
[1] = system: human T-lymphoma (Jurkat) cells; assay: Cytotoxicity to human T-lymphoma (Jurkat) cells, Example 1; format: cell-based
Method: (§1) A. A block copolymer of poly(oxyethylene)-poly(oxypropylene) in which N=0.25 (Pluronic F-68) is diluted with RPMI 1640 medium to a final concentration of 2.0% at 4° C. The mixture is incubated for 30 minutes at 37° C. and then sterilely filtered through a 0.22 μm filter. An equal volume of a solution of 200 μg daunorubicin in RPMI 1640 medium is added and this mixture is incubated for 30 minutes at 37° C.
(§2) B. Human ovarian carcinoma cells (CRL157) are precultured in 1% solution of the same block copolymer but without daunorubicin in RPMI 1640 medium supplemented with 10% calf fetal serum. The preparation of part A is added and the mixture is incubated for 60 minutes at 37° C. and the cells then washed three times with RPMI 1640 and cultured in RPMI 1640 supplemented with 10% calf fetal serum for 3 days {Prep. A}. Cytotoxicity is measured, both for this preparation and a parallel preparation of free daunorubicin {Prep. B}, using the method of Alley et al., Cancer Res., 48, 589-601 (1988). The results are as follows:
Following the same procedure, cytotoxicity is determined against human T-lymphoma (Jurkat) cells: […]

[2] = system: human small cell carcinoma of lung (H-69); assay: Cytotoxicity to human small cell carcinoma of lung (H-69), Example 1; format: cell-based
Method: as §1, §2
Following the same procedure, cytotoxicity is determined against human small cell carcinoma of lung (H-69): […]

[3] = system: human T-lymphoma (Jurkat) cells; assay: Cytotoxicity in human T-lymphoma (Jurkat) cells, Example 4; format: cell-based
Method: as §2
(§3) A. A 1:1.5 mixture of block copolymers of poly(oxyethylene)-poly(oxypropylene) (pluronics P-85 and L-64) having individual ratios (n) of (oxypropylene) to (oxyethylene) blocks of 1.00 and 1.50, respectively, and a combined value (N) of 1.30, is diluted with RPMI 1640 medium to a final concentration of 2.0% at 4° C. The mixture is incubated for 30 minutes at 37° C. and then sterilely filtered through a 0.22 μm filter. An equal volume of a solution of 200 μg daunorubicin in RPMI 1640 medium is added and this mixture is incubated for 30 minutes at 37° C.
(§4) Daunorubicin in the composition of Example 3 is evaluated for cytotoxicity in (i) human T-lymphoma (Jurkat) cells as described in Example 1 and (ii) normal human mononuclear cells.

[4] = system: leukocytes; assay: Leukocyte count (WBS) in mice
Method: Therefore, the leukocyte count during in vivo administration of MTD daunorubicin allows the assessment of the ratio between specific (DNA-intercollation) activity of the drug and non-specific toxicity.
Groups (6 animals/group) of C57B1/6 7-week-old female mice are inoculated i.p. with free of micellar (N=1.3) daunorubicin obtained as described in Example 3 {Prep. B and Prep. A, respectively}. Drug concentrations (MTD) are adjusted so that a maximum volume of 0.5 mL is injected in each mouse. Blood samples are collected and viable leukocytes are counted as described in Michisch et al., Proc. Natl. Acad. Sci. USA 88, 547-551 (1991). The number of WBC after administration of 0.1 mL PBS, 15-16 mln cells/mL, is used as the control. The experiment is repeated twice.
The effects of free and micellar daunorubicin obtained as described in Example 3 {Prep. B and Prep. A, respectively} on leukocyte count are determined three days after administration as described in Example 15.

[5] = system: human ovarian cancer cells (CRL157); assay: Cytotoxicity to human ovarian cancer cells (CRL157), Example 3; format: cell-based
Method: as §2, §3
B. Cytotoxicity to human ovarian cancer cells (CRL157) is measured, both for this preparation {Prep. A} and a parallel preparation of free daunorubicin {Prep. B} as described in Example 1B.

[6] = system: human breast cancer (MCF-7); assay: Cytotoxicity against daunorubicin-sensitive human breast cancer (MCF-7); format: cell-based; settings: MCF7
Source text: The daunorubicin composition of Example 3 {Prep. […] B}.

[7] = system: normal human mononuclear cells; assay: Cytotoxicity in normal human mononuclear cells, Example 4; format: cell-based
Method: as §2, §3, §4

[8] = system: H-69 cells; assay: Cytotoxic activity of plasma of inoculated mice on H-69 cells; format: cell-based, human; settings: MTD i.v., plasma one hour after administration
Method: Anti-neoplastic activity is determined by evaluation of the cytotoxic activity of plasma of mammals inoculated with the test composition (see de Valeriola et el., Cancer Chemother. Pharmacol. 29, 133-140, 1991).
Groups (6 animals/group) of C57B1/6 7-week-old female mice are inoculated i.v. (via the tail vein) with free or micellar (N=1.3) daunorubicin obtained as described in Example 3 {Prep. B and Prep. A, respectively}. Drug concentrations (MTD) are adjusted so that a maximum volume of 0.1 mL is injected in each mouse. The experiment is repeated twice.
To obtain plasma samples, blood (10 μl) is collected from the tail artery one hour after drug administration, diluted 1:10 with sterile RPMI 1640 medium, and centrifuged at 400 g for 15 minutes. […] The cells are incubated for two hours at 37° C. and 5% CO2, and then washed three times with RPMI 1640. The pretreated cells are incubated in RPMI 1640 supplemented with 10% fetal calf serum at 37° C. and 5% CO2 for three days, after which cytotoxicity is determined as described in Example 1.

Compound `COc1cccc2c1C(=O)c1c(O)c3c(c(O)c1C2=O)C[C@@](O)(C(C)=O)C[C@@H]3O[C@H]1C[C@H](N)[C@H](O)[C@H](C)O1` [Prep. B, daunorubicin] has an inhibition at 0.0032 µg/mL [1] of 22%, an inhibition at 0.016 µg/mL [1] of 44% and an inhibition at 0.08 µg/mL [1] of 51%. The inhibition at 0.4 µg/mL [1] was 84%, the inhibition at 2 µg/mL [1] was 100% and the inhibition at 10 µg/mL [1] was 100%. It also gave an inhibition at 50 µg/mL [1] of 100%, an inhibition at 0.0032 µg/mL [2] of 20% and an inhibition at 0.016 µg/mL [2] of 42%. The inhibition at 0.08 µg/mL [2] was 69%, the inhibition at 0.4 µg/mL [2] was 91% and the inhibition at 2 µg/mL [2] was 100%. It also gave an inhibition at 10 µg/mL [2] of 100%, an inhibition at 50 µg/mL [2] of 100% and an inhibition at 0.0032 µg/mL [3] of 21%. The inhibition at 0.016 µg/mL [3] was 36%, the inhibition at 0.08 µg/mL [3] was 59% and the inhibition at 0.4 µg/mL [3] was 83%. The inhibition at 2 µg/mL [3] was 100%, the inhibition at 10 µg/mL [3] was 100% and the inhibition at 50 µg/mL [3] was 100%. For the same compound, the “WBS, % of control” value ([4]; day 0, MTD i.p.) was 100 % of control, the “WBS, % of control” value ([4]; day 3, MTD i.p.) was 40 % of control and the “WBS, % of control” value ([4]; day 7, MTD i.p.) was 60 % of control. The “WBS, % of control” value ([4]; day 10, MTD i.p.) was 93.8 % of control, the “WBS, % of control” value ([4]; day 14, MTD i.p.) was 100 % of control and the “WBS, % of control” value ([4]; dose 25% of MTD, three days after administration) was 78 % of control. For the same compound, the “WBS, % of control” value ([4]; dose 50% of MTD, three days after administration) was 61 % of control, the “WBS, % of control” value ([4]; dose 75% of MTD, three days after administration) was 36 % of control and the “WBS, % of control” value ([4]; dose 100% of MTD, three days after administration) was 39 % of control. For the same compound, the inhibition at 0.0032 µg/mL [5] was 2%, the inhibition at 0.016 µg/mL [5] was 10% and the inhibition at 0.08 µg/mL [5] was 29%. It also gave an inhibition at 0.4 µg/mL [5] of 50%, an inhibition at 2 µg/mL [5] of 81% and an inhibition at 10 µg/mL [5] of 100%. For the same compound, the inhibition at 50 µg/mL [5] was 100%, the inhibition at 0.016 µg/mL [6] was 15% and the inhibition at 0.08 µg/mL [6] was 43%. The inhibition at 0.4 µg/mL [6] was 69%, the inhibition at 2 µg/mL [6] was 91% and the inhibition at 10 µg/mL [6] was 100%. The inhibition at 50 µg/mL [6] was 100%, the inhibition at 0.0032 µg/mL [7] was 1% and the inhibition at 0.016 µg/mL [7] was 18%. The inhibition at 0.08 µg/mL [7] was 23%, the inhibition at 0.4 µg/mL [7] was 58% and the inhibition at 2 µg/mL [7] was 80%. For the same compound, the inhibition at 10 µg/mL [7] was 100%, the inhibition at 50 µg/mL [7] was 100% and the “Inhibition, %” value ([8]; plasma dilution 1:20) was 42%. For the same compound, the “Inhibition, %” value ([8]; plasma dilution 1:200) was 5%, the “Inhibition, %” value ([8]; plasma dilution 1:2000) was 0% and the “Inhibition, %” value ([8]; plasma dilution 1:20000) was 0%.
